Source: publication PMC6338644 (The FASEB Journal, 2018)
Counter-ions that a name gives are not always drawn.

What was measured:
[1] = tested on: podocytes in kidneys of patients with T2D; test: Podocyte number per glomerulus (WT1-positive cells) in patient kidneys; format: in vivo, human; conditions: compared with people without T2D; WT1-positive cells per glomeruli
[2] = target: T1, purified His-tagged SHIP2 phosphatase domain (Homo sapiens, UniProt O15357); test: Manual malachite green phosphate assay (96-well), purified SHIP2 phosphatase domain; format: biochemical; conditions: 10 µM; 100 ng enzyme; manual assay (Fig. 1B)
T1 construct: we produced a His-tagged human SHIP2 phosphatase domain; His; made in house
T1 sequence (O15357 419-732 limits assumed): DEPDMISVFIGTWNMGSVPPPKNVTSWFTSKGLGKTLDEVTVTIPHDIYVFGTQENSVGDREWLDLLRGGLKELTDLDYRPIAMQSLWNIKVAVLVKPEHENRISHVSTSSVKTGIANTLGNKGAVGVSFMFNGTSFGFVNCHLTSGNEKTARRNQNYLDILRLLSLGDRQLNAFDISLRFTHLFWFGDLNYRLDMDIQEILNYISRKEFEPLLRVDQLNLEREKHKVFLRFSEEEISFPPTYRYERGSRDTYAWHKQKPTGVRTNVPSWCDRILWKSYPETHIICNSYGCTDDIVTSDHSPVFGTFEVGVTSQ

reduction of catalytic activity of recombinant SHIP2 phosphatase domain [2]: 44%
Structure (SMILES): CN(C)C(=N)N=C(N)N [Metformin, 1,1-Dimethylbiguanide hydrochloride]
podocyte loss in metformin-receiving patients [1]: 11%
